Results: US20180161262A1, “Cosmetic Method and Dermatological Topical Agent for Use Therein, Migration Imparting Agent, and Method for Screening Components for Use in Cosmetic Method for Improving Skin State” (ROHTO PHARMACEUTICAL CO., LTD., priority 2015, published 2018)

Experiments:
[1] = system: human adipose-derived stem cells; experiment: Confirmation test for migration imparting effect (96-well Boyden chamber, Calcein-AM fluorescence); type: cell-based; conditions: 20 hours; for Migration imparting effect, Ratio to blank (%): blank = 100%
Method: A medium of human adipose-derived stem cells (manufactured by Kurabo Industries Ltd.; cultured to the 7th passage in STEMLIFE medium [provided by Lifeline Cell Technology]) was replaced with DMEM/F12 medium (manufactured by Life Technologies Corp.), followed by culture for additional 20 hours.
(§1) Meanwhile, a medium in which a sample to be examined for the presence or absence of the migration imparting effect was dissolved at a predetermined concentration was prepared by using 0.1% by volume of fetal bovine serum (nutritional source). Also, DMEM/F12 medium containing 0.1% by volume of fetal bovine serum and not containing the sample (blank) was provided.
Then, the prepared medium was supplied at 200 μL per well to lower wells of a 96-well Boyden chamber (manufactured by Corning Inc., model number: 3384) having a membrane pore size of 8 μm. Also, the human adipose-derived stem cells cultured for 20 hours in the DMEM/F12 medium were inoculated at 30000 cells per well to upper wells of the Boyden chamber and cultured at 37° C. for 20 hours under 5% by volume of CO2.
1.2 μL/mL of Calcein-AM (fluorescent dye, manufactured by Molecular Probes/Thermo Fisher Scientific Inc.) dissolved at 1.66 mg/mL in DMSO (manufactured by Wako Pure Chemical Industries, Ltd.) was added to 10× cell dissociation solution (cell dissolution solution, manufactured by Trevigen Inc.) diluted 10-fold with sterilized water to thereby prepare an index solution for fluorescence emission having the correlation between the number of human adipose-derived stem cells and the strength of fluorescence emission.
The media in the upper and lower wells were taken out of the Boyden chamber and washed with PBS(−) (manufactured by Dojindo Laboratories), and then, the index solution for fluorescence emission was supplied at 100 μL per well to the lower wells and incubated at 37° C. for 1 hour under 5% by volume of CO2 in the dark. Then, the index solution in the lower wells after the incubation was transferred to a 96-well plate (manufactured by Greiner Bio One International GmbH) having black walls and a transparent bottom, and fluorescence intensity (excitation wavelength: 485 nm, detection wavelength: 520 nm) was measured. Each test was conducted in triplicate (n=3).
Specifically, since there is a correlation between the number of human adipose-derived stem cells and the strength of fluorescence emission as mentioned above, the presence or absence of the migration imparting effect was confirmed by determining increase or decrease in the fluorescence intensity of the lower wells by using the fluorescence intensity obtained by the assay of the blank as a reference (100%). As for the determination of the presence or absence of migration, the “migration imparting effect was present” was determined provided that the rate of stem cell migration (rate of increase with respect to the blank) was 5% or more (score + or more) according to the score shown in Table 1 below.
(§2) It is known that the doubling time of the present cells is usually 24 hours or longer, and in the confirmation test for the migration imparting effect, the human adipose-derived stem cells are taken out 20 hours after inoculation and washed, followed by the measurement of the strength of fluorescence emission. Accordingly, in this test, the growth effect of the human adipose-derived stem cells themselves is not included, and only increase in cells by migration is evaluated. On the other hand, in the confirmation test for the growth promoting effect, absorbance 72 hours after inoculation of the human adipose-derived stein cells is measured, and increase in cells by self-growth is simply evaluated.

[2] = system: human adipose-derived stem cells; experiment: Confirmation test for growth promoting effect (WST-8 method, Cell Counting Kit-8); type: cell-based; conditions: 72 hours; for Growth promoting effect, Ratio to blank (%): blank = 100%
Method: as §1, with “A” for “Meanwhile, a”, “using DMEM/F12 medium (manufactured by Life Technologies Corp.) containing” for “using”, “serum.” for “serum (nutritional source).”, “unsupplemented with” for “and not containing”
Then, human adipose-derived stem cells (manufactured by Kurabo Industries Ltd.; cultured to the 5th passage in STEMLIFE medium [provided by Lifeline Cell Technology]) were inoculated at 3000 cells per well with the prepared medium to a 96-well plate and cultured at 37° C. for 72 hours under 5% by volume of CO2, and then, respiratory activity of the cells was measured as an index for whether or not the cells were activated, by the WST-8 method using Cell Counting Kit-8 (manufactured by Dojindo Laboratories). Specifically, after the human adipose-derived stem cells were cultured for 72 hours, the medium of each well was replaced with DMEM/F12 medium containing Cell Counting Kit-8, which was then incubated at 37° C. for 4 hours under 5% by volume of CO2 in the dark, and then, absorbance at a wavelength of 450 nm (control wavelength: 630 nm) was measured. Each test was conducted in triplicate (n=3).
Specifically, the degree of the respiratory activity (proportional to the number of cells) was measured as the absorbance (wavelength: 450 nm) of the solution by using the WST-8 reagent. Then, the presence or absence of the growth promoting effect was confirmed by determining increase or decrease in the absorbance of the sample-containing prepared medium by using the absorbance obtained by the assay of the blank medium as a reference (100%). As for the determination of the presence or absence of growth promotion, the “stem cell growth promoting effect was present” was determined provided that the rate of stem cell growth (rate of growth with respect to the blank) was 5% or more (score + or more) according to the score shown in Table 2 below.
as §2

[3] = applied concentration 0.001 mg/mL
[4] = applied concentration 0.01 mg/mL
[5] = applied concentration 0.1 mg/mL
[6] = applied concentration 1.0 mg/mL

Substance | Migration imparting effect, Evaluation (score) [1, 3] | Migration imparting effect, Ratio to blank (%) [1, 3] | Migration imparting effect, Evaluation (score) [1, 4] | Migration imparting effect, Ratio to blank (%) [1, 4] | Migration imparting effect, Evaluation (score) [1, 5] | Migration imparting effect, Ratio to blank (%) [1, 5] | Growth promoting effect, Evaluation (score) [2, 4] | Growth promoting effect, Ratio to blank (%) [2, 4] | Growth promoting effect, Evaluation (score) [2, 5] | Growth promoting effect, Ratio to blank (%) [2, 5] | Migration imparting effect, Evaluation (score) [1, 6] | Migration imparting effect, Ratio to blank (%) [1, 6] | Growth promoting effect, Evaluation (score) [2, 6] | Growth promoting effect, Ratio to blank (%) [2, 6]
copper tripeptide-1 | +++ (130 or more and less than 140) | 130% | ++ (120 or more and less than 130) | 125% | +++ (130 or more and less than 140) | 131% | +++ (130 or more and less than 140) | 130% | ++++ (140 or more) | 160% | – | – | – | –
caprooyl tetrapeptide-3 | – | – | + (105 or more and less than 120) | 109% | +++ (130 or more and less than 140) | 133% | ++ (120 or more and less than 130) | 120% | ++ (120 or more and less than 130) | 123% | +++ (130 or more and less than 140) | 132% | + (105 or more and less than 120) | 117%
